Data from ChEMBL document CHEMBL1135808, “A new type of mixed anhydride and its applications to the synthesis of 7-substituted 8-chloro-5,5-dioxoimidazo[1,2-b][1,4,2]benzodithiazines with in vitro antitumor activity” (2002).
Activity calls are given as the source filed them. The calls are words filed in the database; no cut-off is given here.

Legend:
Tumor Cell line [1] = assay: In vitro inhibition of 50% cell growth was reported as log of molar concentration for 57 cell lines.; assay type: functional; settings: Homo sapiens
Tumor Cell line [2] = assay: In vitro total growth inhibition for 50 cell lines was reported as log of molar concentration; assay type: functional, Homo sapiens
Tumor Cell line [3] = assay: Log of molar concentration leading to 50% cell death was reported; assay type: functional; settings: Homo sapiens, read-out: Log LC50 (the source's name) (converted)
Tumor Cell line [4] = assay: In vitro inhibition of 50% cell growth was reported as log of molar concentration for 54 cell lines; Inactive; assay type: functional, cell-based; settings: Homo sapiens
Tumor Cell line [5] = assay: In vitro total growth inhibition for 50 cell lines was reported as log of molar concentration; Inactive; assay type: functional, cell-based; settings: Homo sapiens
Tumor Cell line [6] = assay: Log of molar concentration leading to 50% cell death was reported; Inactive; assay type: functional, cell-based; settings: Homo sapiens
Tumor Cell line [7] = assay: In vitro inhibition of 50% cell growth was reported as log of molar concentration for 50 cell lines.; assay type: functional; settings: Homo sapiens
Tumor Cell line [8] = assay: In vitro inhibition of 50% cell growth was reported as log of molar concentration for 56 cell lines.; assay type: functional; settings: Homo sapiens
Tumor Cell line [9] = assay: Log of molar concentration leading to 50% cell death was reported for 50 cell lines; assay type: functional; settings: Homo sapiens, read-out: Log LC50 (the source's name) (converted)
Tumor Cell line [10] = assay: In vitro inhibition of 50% cell growth was reported as log of molar concentration for 54 cell lines.; assay type: functional; settings: Homo sapiens
Tumor Cell line [11] = assay: In vitro inhibition of 50% cell growth was reported as log of molar concentration for 58 cell lines.; assay type: functional; settings: Homo sapiens
Tumor Cell line [12] = assay: In vitro inhibition of 50% cell growth was reported as log of molar concentration for 46 cell lines.; assay type: functional; settings: Homo sapiens

Row | Structure (SMILES) | Log GTI (Tumor Cell line [2]) | CC50 (Tumor Cell line [3]) [µM] | IA (Tumor Cell line [4]) | IA (Tumor Cell line [5]) | IA (Tumor Cell line [6]) | further results
1 | Cc1ccc2cc(NC(=O)c3cc4c(cc3Cl)Sc3nccn3S4(=O)=O)ccc2n1 | -4.06 | 100 |  |  |  | GI50 (Tumor Cell line [1]): 33.9 µM
2 | O=C(Nc1ccccc1C(=O)Nc1ccccc1)c1cc2c(cc1Cl)Sc1nccn1S2(=O)=O |  |  | inactive | inactive | inactive | 
3 | Cc1cccnc1NC(=O)c1cc2c(cc1Cl)Sc1nccn1S2(=O)=O |  |  | inactive | inactive | inactive | 
4 | O=C(Nc1ccc2cc3ccccc3cc2c1)c1cc2c(cc1Cl)Sc1nccn1S2(=O)=O | -4.52 |  |  |  |  | GI50 (Tumor Cell line [7]): 87.1 µM
5 | O=C(Nc1cccc2cnccc12)c1cc2c(cc1Cl)Sc1nccn1S2(=O)=O | -4.04 |  |  |  |  | GI50 (Tumor Cell line [8]): 39.8 µM; CC50 (Tumor Cell line [9]): 100 µM
6 | O=C1c2ccccc2/N=C(/c2cc3c(cc2Cl)Sc2nccn2S3(=O)=O)OS(=O)(=O)N1c1ccccc1 | -4.04 | 91.2 |  |  |  | GI50 (Tumor Cell line [10]): 81.3 µM
7 | O=C(Nc1ccccn1)c1cc2c(cc1Cl)Sc1nccn1S2(=O)=O | -4.02 | 58.9 |  |  |  | GI50 (Tumor Cell line [11]): 70.8 µM
8 | O=C(Oc1c(-c2ccccc2)oc2ccccc2c1=O)c1cc2c(cc1Cl)Sc1nccn1S2(=O)=O |  |  | inactive | inactive | inactive | 
9 | O=C(Nc1ccc2scnc2c1)c1cc2c(cc1Cl)Sc1nccn1S2(=O)=O |  |  | inactive | inactive | inactive | 
10 | O=C(c1cc2c(cc1Cl)Sc1nccn1S2(=O)=O)N1c2ccccc2C=Cc2ccccc21 |  |  | inactive | inactive | inactive | 
11 | O=c1c2ccccc2nc(-c2cc3c(cc2Cl)Sc2nccn2S3(=O)=O)n1-c1ccccc1 | -4.07 | 85.1 |  |  |  | GI50 (Tumor Cell line [12]): 89.1 µM
12 | Cc1ccnc(NC(=O)c2cc3c(cc2Cl)Sc2nccn2S3(=O)=O)c1 |  |  | inactive | inactive | inactive | 
